Test results from patent US20100273876A1, “ANTIBACTERIAL FORMULATION COMPRISING A DIALKYL SULPHOSUCCINATE AND A CARBANILIDE ANTIBACTERIAL AGENT” (priority 2007, published 2010).

Columns and labels:
Assay in all cases: (S)DDA disc diffusion
Format in all cases: cell-based, Propionibacterium acnes
P. acnes PRP-002 = test system: P. acnes PRP-002
Experimental: (§1) The propionibacteria were cultured and maintained on Wilkins-Chalgren Anaerobe Medium (agar and broth) at pH 6.0; all cultures were incubated anaerobically at 37° C. for 72 hours.
(§2) A sterile paper disc was impregnated with a sample of the test compound in a suitable solvent and 30 minutes allowed for the solvents to evaporate (where possible). The disc was then placed on an agar plate onto which the test micro-organism had been inoculated. The plate was then incubated under the conditions described above, following which it was examined visually for signs of microbial growth. If the test compound had antimicrobial activity, a circular zone of no growth would be obtained around the disc. The diameter of this zone of “inhibition” was measured using a ProtoCOL™ automated zone sizer (Synbiosis, Cambridge, UK). In general, a greater diameter and/or area of the zone of inhibition indicates a greater antimicrobial activity in the relevant test compound, although other factors such as test compound mobility through the agar gel may also influence the result.
(§3) Two test a compounds A and B were placed on a single paper disc and the above described DDA procedure repeated. An increase in diameter of the zone of inhibition, compared to the greater of the zone diameters for the two compounds individually, was taken to indicate potential antimicrobial synergy. In practical terms, an increase of greater than 5 mm could be treated as significant.
(§4) Both the DDA and the SDDA test may be carried out using an agar gel supplemented with lipid and/or salt to simulate some of the major components present in human skin and to assess whether these substances might reduce the antimicrobial activity observed for the test compound. Performance under these conditions can provide a more reliable indication of activity on topical application. The supplements used in Examples 1, 11, 12 and 13 below were lipid (either Tween™ 80 at 1% v/v (Example 1) or triolein at 1% v/v (Examples 11, 12 and 13) and sodium chloride (100 mM).

P. acnes PRP-003 = test system: P. acnes PRP-003
Experimental: as §1, §2, §3, §4

P. acnes PRP-004 = test system: P. acnes PRP-004
Experimental: as §1, §2, §3, §4

P. acnes PRP-007 = test system: P. acnes PRP-007
Experimental: as §1, §2, §3, §4

P. acnes PRP-008 = test system: P. acnes PRP-008
Experimental: as §1, §2, §3, §4

P. acnes PRP-010 = test system: P. acnes PRP-010
Experimental: as §1, §2, §3, §4

P. acnes PRP-017 = test system: P. acnes PRP-017
Experimental: as §1, §2, §3, §4

P. acnes PRP-023 = test system: P. acnes PRP-023
Experimental: as §1, §2, §3, §4

P. acnes PRP-026 = test system: P. acnes PRP-026
Experimental: as §1, §2, §3, §4

P. acnes PRP-039 = settings: for DDA: P. acnes PRP-039 (Tet/MLS), 200 μg TCC or 50 μg DOSS per disc
Experimental: as §1, §2, §3, §4

P. acnes PRP-046 = test system: P. acnes PRP-046
Experimental: as §1, §2, §3, §4

P. acnes PRP-053 = test system: P. acnes PRP-053
Experimental: as §1, §2, §3, §4

P. acnes PRP-059 = test system: P. acnes PRP-059
Experimental: as §1, §2, §3, §4

P. acnes PRP-068 = test system: P. acnes PRP-068
Experimental: as §1, §2, §3, §4

P. acnes PRP-101 = test system: P. acnes PRP-101
Experimental: as §1, §2, §3, §4

P. acnes PRP-102 = test system: P. acnes PRP-102
Experimental: as §1, §2, §3, §4

[1] = P. acnes PRP-002 (Tet/MLS), 200 μg TCC or 50 μg DOSS per disc
[2] = P. acnes PRP-003 (Tet), 200 μg TCC or 50 μg DOSS per disc
[3] = P. acnes PRP-004 (Tet), 200 μg TCC or 50 μg DOSS per disc
[4] = P. acnes PRP-007 (Clin), 200 μg TCC or 50 μg DOSS per disc
[5] = P. acnes PRP-008 (Clin), 200 μg TCC or 50 μg DOSS per disc
[6] = P. acnes PRP-010 (MLSK), 200 μg TCC or 50 μg DOSS per disc
[7] = P. acnes PRP-017 (MLS), 200 μg TCC or 50 μg DOSS per disc
[8] = P. acnes PRP-023 (MLSK), 200 μg TCC or 50 μg DOSS per disc
[9] = P. acnes PRP-026 (MLS), 200 μg TCC or 50 μg DOSS per disc
[10] = P. acnes PRP-046 (resistance None), 200 μg TCC or 50 μg DOSS per disc
[11] = P. acnes PRP-053 (Tet/MLS), 200 μg TCC or 50 μg DOSS per disc
[12] = P. acnes PRP-059 (MLS), 200 μg TCC or 50 μg DOSS per disc
[13] = P. acnes PRP-068 (Ery), 200 μg TCC or 50 μg DOSS per disc
[14] = P. acnes PRP-101 (Tet/MLS), 200 μg TCC or 50 μg DOSS per disc
[15] = P. acnes PRP-102 (Tet/MLS), 200 μg TCC or 50 μg DOSS per disc

With dioctyl sodium sulphosuccinate [DOSS] the DDA (P. acnes PRP-002; [1]) was 31.76 mm, the DDA (P. acnes PRP-002; P. acnes PRP-002, 200 μg per disc) was 49.49 mm and the “DDA + salt” value (P. acnes PRP-002; P. acnes PRP-002, 200 μg per disc, sodium chloride 100 mM) was 51.36 mm. For the same compound, the “DDA + lipid” value (P. acnes PRP-002; P. acnes PRP-002, 200 μg per disc, triolein 1% v/v) was 48.25 mm, the DDA (P. acnes PRP-003; [2]) was 27.95 mm and the DDA (P. acnes PRP-003; P. acnes PRP-003, 200 μg per disc) was 42.96 mm. For the same compound, the “DDA + salt” value (P. acnes PRP-003; P. acnes PRP-003, 200 μg per disc, sodium chloride 100 mM) was 46.69 mm, the “DDA + lipid” value (P. acnes PRP-003; P. acnes PRP-003, 200 μg per disc, triolein 1% v/v) was 43.58 mm and the DDA (P. acnes PRP-004; [3]) was 26.62 mm. For the same compound, the DDA (P. acnes PRP-004; P. acnes PRP-004, 200 μg per disc) was 48.56 mm, the “DDA + salt” value (P. acnes PRP-004; P. acnes PRP-004, 200 μg per disc, sodium chloride 100 mM) was 43.27 mm and the “DDA + lipid” value (P. acnes PRP-004; P. acnes PRP-004, 200 μg per disc, triolein 1% v/v) was 46.07 mm. The DDA (P. acnes PRP-007; [4]) was 21.38 mm, the DDA (P. acnes PRP-007; P. acnes PRP-007, 200 μg per disc) was 47.32 mm and the “DDA + salt” value (P. acnes PRP-007; P. acnes PRP-007, 200 μg per disc, sodium chloride 100 mM) was 42.96 mm. For the same compound, the “DDA + lipid” value (P. acnes PRP-007; P. acnes PRP-007, 200 μg per disc, triolein 1% v/v) was 44.82 mm, the DDA (P. acnes PRP-008; [5]) was 24.87 mm and the DDA (P. acnes PRP-008; P. acnes PRP-008, 200 μg per disc) was 48.25 mm. The “DDA + salt” value (P. acnes PRP-008; P. acnes PRP-008, 200 μg per disc, sodium chloride 100 mM) was 48.56 mm, the “DDA + lipid” value (P. acnes PRP-008; P. acnes PRP-008, 200 μg per disc, triolein 1% v/v) was 43.58 mm and the DDA (P. acnes PRP-010; [6]) was 26.82 mm. For the same compound, the DDA (P. acnes PRP-010; P. acnes PRP-010, 200 μg per disc) was 46.69 mm, the “DDA + salt” value (P. acnes PRP-010; P. acnes PRP-010, 200 μg per disc, sodium chloride 100 mM) was 46.07 mm and the “DDA + lipid” value (P. acnes PRP-010; P. acnes PRP-010, 200 μg per disc, triolein 1% v/v) was 39.84 mm. The DDA (P. acnes PRP-017; [7]) was 28.98 mm, the DDA (P. acnes PRP-017; P. acnes PRP-017, 200 μg per disc) was 47.94 mm and the “DDA + salt” value (P. acnes PRP-017; P. acnes PRP-017, 200 μg per disc, sodium chloride 100 mM) was 47.63 mm. For the same compound, the “DDA + lipid” value (P. acnes PRP-017; P. acnes PRP-017, 200 μg per disc, triolein 1% v/v) was 44.82 mm, the DDA (P. acnes PRP-023; [8]) was 26.41 mm and the DDA (P. acnes PRP-023; P. acnes PRP-023, 200 μg per disc) was 49.49 mm. The “DDA + salt” value (P. acnes PRP-023; P. acnes PRP-023, 200 μg per disc, sodium chloride 100 mM) was 47.32 mm, the “DDA + lipid” value (P. acnes PRP-023; P. acnes PRP-023, 200 μg per disc, triolein 1% v/v) was 46.38 mm and the DDA (P. acnes PRP-026; [9]) was 28.26 mm. The DDA (P. acnes PRP-026; P. acnes PRP-026, 200 μg per disc) was 49.81 mm, the “DDA + salt” value (P. acnes PRP-026; P. acnes PRP-026, 200 μg per disc, sodium chloride 100 mM) was 48.25 mm and the “DDA + lipid” value (P. acnes PRP-026; P. acnes PRP-026, 200 μg per disc, triolein 1% v/v) was 43.89 mm. The DDA (P. acnes PRP-039) was 23.02 mm, the “DDA + salt” value (P. acnes PRP-039; P. acnes PRP-039, 200 μg per disc, sodium chloride 100 mM) was 46.38 mm and the DDA (P. acnes PRP-046; [10]) was 25.08 mm. The DDA (P. acnes PRP-046; P. acnes PRP-046, 200 μg per disc) was 44.51 mm, the “DDA + salt” value (P. acnes PRP-046; P. acnes PRP-046, 200 μg per disc, sodium chloride 100 mM) was 47.00 mm and the “DDA + lipid” value (P. acnes PRP-046; P. acnes PRP-046, 200 μg per disc, triolein 1% v/v) was 41.09 mm. For the same compound, the DDA (P. acnes PRP-053; [11]) was 17.78 mm, the DDA (P. acnes PRP-053; P. acnes PRP-053, 200 μg per disc) was 49.49 mm and the “DDA + salt” value (P. acnes PRP-053; P. acnes PRP-053, 200 μg per disc, sodium chloride 100 mM) was 44.82 mm. The “DDA + lipid” value (P. acnes PRP-053; P. acnes PRP-053, 200 μg per disc, triolein 1% v/v) was 42.02 mm, the DDA (P. acnes PRP-059; [12]) was 11.82 mm and the DDA (P. acnes PRP-059; P. acnes PRP-059, 200 μg per disc) was 43.58 mm. For the same compound, the “DDA + salt” value (P. acnes PRP-059; P. acnes PRP-059, 200 μg per disc, sodium chloride 100 mM) was 44.20 mm, the “DDA + lipid” value (P. acnes PRP-059; P. acnes PRP-059, 200 μg per disc, triolein 1% v/v) was 44.82 mm and the DDA (P. acnes PRP-068; [13]) was 25.59 mm. For the same compound, the DDA (P. acnes PRP-068; P. acnes PRP-068, 200 μg per disc) was 48.87 mm, the “DDA + salt” value (P. acnes PRP-068; P. acnes PRP-068, 200 μg per disc, sodium chloride 100 mM) was 46.69 mm and the “DDA + lipid” value (P. acnes PRP-068; P. acnes PRP-068, 200 μg per disc, triolein 1% v/v) was 44.51 mm. The DDA (P. acnes PRP-101; [14]) was 14.59 mm, the DDA (P. acnes PRP-101; P. acnes PRP-101, 200 μg per disc) was 41.40 mm and the “DDA + lipid” value (P. acnes PRP-101; P. acnes PRP-101, 200 μg per disc, triolein 1% v/v) was 40.47 mm. For the same compound, the DDA (P. acnes PRP-102; [15]) was 22.81 mm, the DDA (P. acnes PRP-102; P. acnes PRP-102, 200 μg per disc) was 44.82 mm and the “DDA + salt” value (P. acnes PRP-102; P. acnes PRP-102, 200 μg per disc, sodium chloride 100 mM) was 41.71 mm. The “DDA + lipid” value (P. acnes PRP-102; P. acnes PRP-102, 200 μg per disc, triolein 1% v/v) was 37.98 mm.

Compound `O=C(Nc1ccc(Cl)cc1)Nc1ccc(Cl)c(Cl)c1` [TCC, N-(4-chlorophenyl)-N′-(3,4-dichlorophenyl) urea] has a DDA (P. acnes PRP-002; [1]) of 34.22 mm, a DDA (P. acnes PRP-003; [2]) of 23.64 mm and a DDA (P. acnes PRP-004; [3]) of 15.42 mm. It also gave a DDA (P. acnes PRP-007; [4]) of 13.87 mm, a DDA (P. acnes PRP-008; [5]) of 14.80 mm and a DDA (P. acnes PRP-010; [6]) of 22.81 mm. The DDA (P. acnes PRP-017; [7]) was 18.81 mm, the DDA (P. acnes PRP-023; [8]) was 21.27 mm and the DDA (P. acnes PRP-026; [9]) was 22.71 mm. For the same compound, the DDA (P. acnes PRP-039) was 18.91 mm, the DDA (P. acnes PRP-046; [10]) was 20.25 mm and the DDA (P. acnes PRP-053; [11]) was 21.58 mm. It also gave a DDA (P. acnes PRP-059; [12]) of 19.73 mm, a DDA (P. acnes PRP-068; [13]) of 22.30 mm and a DDA (P. acnes PRP-101; [14]) of 16.75 mm. It also gave a DDA (P. acnes PRP-102; [15]) of 14.59 mm.
